In BindingDB's records for doi:10.7270/Q2QJ7FRJ (Nmmlsc, 2009):

Target: Cell division control protein 42 homolog (Homo sapiens, UniProt P60953)
Experiment: inhibition of fluorescent GTP binding to wildtype Cdc42 – biochemical, pyrazoline analogs, multiplex bead flow cytometry, Ki, SAR follow-up (AID 2019)
Details: not given

Cell division control protein 42 homolog, sequence (P60953 whole entry): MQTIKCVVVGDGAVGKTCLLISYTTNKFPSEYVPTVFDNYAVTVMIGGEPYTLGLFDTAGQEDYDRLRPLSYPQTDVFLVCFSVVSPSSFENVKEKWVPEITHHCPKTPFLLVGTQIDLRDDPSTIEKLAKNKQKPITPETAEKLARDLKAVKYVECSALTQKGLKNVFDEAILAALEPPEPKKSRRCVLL

EC50 [µM]	SMILES
3.32	NS(=O)(=O)c1ccc(N2N=C(c3ccc(Cl)cc3)CC2c2ccccc2)cc1 (centres undefined)
21	COc1ccc(C2CC(c3ccc(F)cc3)=NN2c2cccc(F)c2)cc1OC (centres undefined)
2.3	COc1ccc(C2CC(c3ccc(Cl)cc3)=NN2c2ccc(S(N)(=O)=O)cc2)cc1 (centres undefined)
2.21	COc1ccc(C2CC(c3ccc(C)cc3)=NN2c2ccc(S(N)(=O)=O)cc2)cc1 (centres undefined)
3.11	COc1ccc(C2CC(c3cccc(C(F)(F)F)c3)=NN2c2ccc(S(N)(=O)=O)cc2)cc1 (centres undefined)
9.51	COc1ccc(C2CC(c3cccnc3)=NN2c2ccc(S(N)(=O)=O)cc2)cc1 (centres undefined)
2.76	NS(=O)(=O)c1ccc(N2N=C(c3ccccc3)CC2c2ccc(Cl)cc2)cc1 (centres undefined) [4-[3-(4-chlorophenyl)-5-phenyl-3,4-dihydropyrazol-2-yl]benzenesulfonamide]
2.59	COc1ccc(C2CC(c3ccccc3Cl)=NN2c2ccc(S(N)(=O)=O)cc2)cc1 (centres undefined) [4-[5-(2-chlorophenyl)-3-(4-methoxyphenyl)-3,4-dihydropyrazol-2-yl]benzenesulfonamide]
2.86	COc1ccc(C2CC(c3cccc(F)c3)=NN2c2ccc(S(N)(=O)=O)cc2)cc1 (centres undefined) [4-[5-(3-fluorophenyl)-3-(4-methoxyphenyl)-3,4-dihydropyrazol-2-yl]benzenesulfonamide]
1.46	COc1ccc(C2CC(c3cccc(OC)c3)=NN2c2ccc(S(N)(=O)=O)cc2)cc1 (centres undefined) [4-[5-(3-methoxyphenyl)-3-(4-methoxyphenyl)-3,4-dihydropyrazol-2-yl]benzenesulfonamide]
4.26	COc1ccc(C2CC(c3ccc(F)cc3)=NN2c2ccc(S(N)(=O)=O)cc2)cc1 (centres undefined) [4-[5-(4-fluorophenyl)-3-(4-methoxyphenyl)-3,4-dihydropyrazol-2-yl]benzenesulfonamide]
30	O=S(=O)(O)c1ccc(N2N=C(c3ccccc3)CC2c2ccccc2)cc1 (centres undefined) [UNM-0000305834]

Same assay, conditions: inactive by the depositor's call

SMILES	EC50 [µM]
Cc1onc(-c2ccccc2)c1-c1ccc(S(N)(=O)=O)cc1	30
O=[N+]([O-])c1ccc([N+]2=N[C-](c3ccccc3)CC2c2ccccc2)cc1 (centres undefined)	30
Brc1ccc(N2N=C(c3ccccc3)CC2c2ccccc2)cc1 (centres undefined)	30
COc1ccccc1C1CC(c2ccccc2)=NN1c1ccccc1 (centres undefined)	30
Clc1cccc(N2N=C(c3ccccc3)CC2c2ccccc2)c1 (centres undefined)	30
Clc1ccc(N2N=C(c3ccccc3)CC2c2ccccc2)cc1 (centres undefined)	30
CC(=O)Oc1ccc(C2=NN(c3ccccc3)C(c3ccccc3)C2)cc1 (centres undefined)	30
O=C(O)c1ccc(N2N=C(c3ccccc3)CC2c2ccccc2)cc1 (centres undefined)	30
COc1ccc(C2=NN(c3ccccc3)C(c3ccccc3C(F)(F)F)C2)cc1 (centres undefined)	34.4
O=S(=O)(c1ccc(N2N=C(c3ccccc3)CC2c2ccccc2)cc1)C(F)F (centres undefined)	0.231
CCc1ccc(C2=NN(c3ccc(S(N)(=O)=O)cc3)C(c3ccc(F)cc3)C2)cc1 (centres undefined)	30
CN(C)c1ccc(C2C[C-](c3ccccc3)N=[N+]2c2ccc([N+](=O)[O-])cc2)cc1 (centres undefined)	30
COc1ccc(C2CC(c3ccccc3)=NN2c2ccc(Cl)c(C(=O)O)c2)cc1 (centres undefined)	30
COc1ccc(C2CC(c3cccc(N(C)C)c3)=NN2c2ccc(S(N)(=O)=O)cc2)cc1 (centres undefined)	30
COc1ccc(C2CC(c3ccncc3)=NN2c2ccc(S(N)(=O)=O)cc2)cc1 (centres undefined)	30
Fc1ccccc1C1CC(c2ccc(Br)cc2)=NN1c1ccc(Br)cc1 (centres undefined) [2,5-bis(4-bromophenyl)-3-(2-fluorophenyl)-3,4-dihydropyrazole]	30
COc1ccc(C2CC(c3ccc(F)cc3)=NN2c2cc(Cl)ccc2Cl)cc1 (centres undefined) [2-(2,5-dichlorophenyl)-5-(4-fluorophenyl)-3-(4-methoxyphenyl)-3,4-dihydropyrazole]	30
COc1ccc(C2=NN(c3ccc(Cl)c(Cl)c3)C(c3ccc(OC)cc3)C2)cc1 (centres undefined) [2-(3,4-dichlorophenyl)-3,5-bis(4-methoxyphenyl)-3,4-dihydropyrazole]	30
Fc1ccc(C2=NN(c3cccc(Br)c3)C(c3ccccc3)C2)cc1 (centres undefined) [2-(3-bromophenyl)-5-(4-fluorophenyl)-3-phenyl-3,4-dihydropyrazole]	30
COc1ccc(C2=NN(c3cccc(F)c3)C(c3ccc(OC)cc3)C2)cc1 (centres undefined) [2-(3-fluorophenyl)-3,5-bis(4-methoxyphenyl)-3,4-dihydropyrazole]	30

SMILES	EC50 [µM]
COc1ccc(C2CC(c3ccccc3)=NN2c2ccc(Cl)c(C(=O)O)c2)cc1OC (centres undefined) [2-chloro-5-[3-(3,4-dimethoxyphenyl)-5-phenyl-3,4-dihydropyrazol-2-yl]benzoic acid]	30
COc1ccc(C2=NN(c3cccc(F)c3)C(c3ccc(Cl)cc3)C2)cc1 (centres undefined) [3-(4-chlorophenyl)-2-(3-fluorophenyl)-5-(4-methoxyphenyl)-3,4-dihydropyrazole]	30
COc1ccc(C2C[C-](c3ccccc3)N=[N+]2c2ccc([N+](=O)[O-])cc2)cc1 (centres undefined) [3-(4-methoxyphenyl)-2-(4-nitrophenyl)-5-phenyl-3,4-dihydropyrazole]	30
COc1ccc(C2CC(c3ccccc3)=NN2c2cccc(S(N)(=O)=O)c2)cc1 (centres undefined) [3-[3-(4-methoxyphenyl)-5-phenyl-3,4-dihydropyrazol-2-yl]benzenesulfonamide]	30
CN(C)c1ccc(C2CC(c3ccccc3)=NN2c2ccccc2)cc1 (centres undefined) [4-(2,5-diphenyl-3,4-dihydropyrazol-3-yl)-N,N-dimethylaniline]	30
NS(=O)(=O)c1ccc(N2N=C(c3ccccc3)CC2c2ccccc2)cc1 (centres undefined) [4-(3,5-diphenyl-3,4-dihydropyrazol-2-yl)benzenesulfonamide]	30
NS(=O)(=O)c1ccc(N2N=C(c3ccccc3)CC2c2ccccc2Br)cc1 (centres undefined) [4-[3-(2-bromophenyl)-5-phenyl-3,4-dihydropyrazol-2-yl]benzenesulfonamide]	30
COc1ccc(C2CC(c3ccc(C(F)(F)F)cc3)=NN2c2ccc(S(N)(=O)=O)cc2)cc1 (centres undefined) [4-[3-(4-methoxyphenyl)-5-[4-(trifluoromethyl)phenyl]-3,4-dihydropyrazol-2-yl]benzenesulfonamide]	30
COc1ccc(C2CC(C)=NN2c2ccc(S(N)(=O)=O)cc2)cc1 (centres undefined) [4-[3-(4-methoxyphenyl)-5-methyl-3,4-dihydropyrazol-2-yl]benzenesulfonamide]	30
NS(=O)(=O)c1ccc(N2N=C(c3ccc(Br)cc3)CC2c2ccc(F)cc2)cc1 (centres undefined) [4-[5-(4-bromophenyl)-3-(4-fluorophenyl)-3,4-dihydropyrazol-2-yl]benzenesulfonamide]	30
COc1ccc(-c2cc(-c3ccccc3)nn2-c2ccc(S(N)(=O)=O)cc2)cc1 [4-[5-(4-methoxyphenyl)-3-phenylpyrazol-1-yl]benzenesulfonamide]	5.05
COc1ccc(C2CC(C3CCCCC3)=NN2c2ccc(S(N)(=O)=O)cc2)cc1 (centres undefined) [4-[5-cyclohexyl-3-(4-methoxyphenyl)-3,4-dihydropyrazol-2-yl]benzenesulfonamide]	30
O=S(=O)(c1ccc(N2N=C(c3ccc(Br)cc3)CC2c2ccccc2)cc1)C(F)F (centres undefined) [5-(4-bromophenyl)-2-[4-(difluoromethylsulfonyl)phenyl]-3-phenyl-3,4-dihydropyrazole]	30
FC(F)(F)c1ccccc1C1CC(c2ccc(Br)cc2)=NN1c1ccccc1 (centres undefined) [5-(4-bromophenyl)-2-phenyl-3-[2-(trifluoromethyl)phenyl]-3,4-dihydropyrazole]	30
O=[N+]([O-])c1cccc(C2C[C-](c3ccc(F)cc3)N=[N+]2c2ccccc2)c1 (centres undefined) [5-(4-fluorophenyl)-3-(3-nitrophenyl)-2-phenyl-3,4-dihydropyrazole]	30
Cc1ccc(-c2cc(C(F)(F)F)nn2-c2ccc(S(N)(=O)=O)cc2)cc1 [Celecoxib]	30
COc1ccc(C2CC(c3ccc(N(C)C)cc3)=NN2c2ccc(S(N)(=O)=O)cc2)cc1 (centres undefined) [KUC103422N]	3.37
COc1ccc(C2CC(C(C)(C)C)=NN2c2ccc(S(N)(=O)=O)cc2)cc1 (centres undefined) [KUC103450N]	30
COc1ccc(C2CC(c3ccccc3C(F)(F)F)=NN2c2ccc(S(N)(=O)=O)cc2)cc1 (centres undefined) [KUC103474N]	30
Cc1ccccc1N1N=C(c2ccccc2)CC1c1ccc(N(C)C)cc1 (centres undefined) [N,N-dimethyl-4-[2-(2-methylphenyl)-5-phenyl-3,4-dihydropyrazol-3-yl]aniline]	30

The next lines start with the values.

EC50 [µM]	SMILES
30	COc1ccc(C2CC(c3ccc(Br)cc3)=NN2c2ccccc2Cl)cc1 (centres undefined) [UNM-0000305832]
30	COc1ccc(C2=NN(c3ccccc3)C(c3ccc(Cl)cc3)C2)cc1 (centres undefined) [UNM-0000305833]
30	Cc1cccc(N2N=C(c3ccccc3)CC2c2ccccc2)c1 (centres undefined) [UNM-0000305835]
30	O=[N+]([O-])c1ccc([N+]2=N[C-](c3ccccc3)CC2c2ccc(O)cc2)cc1 (centres undefined) [UNM-0000305838]
30	CN(C)c1ccc(C2CC(c3ccc(Br)cc3)=NN2c2ccccc2)cc1 (centres undefined) [UNM-0000305846]
30	CN(C)c1ccc(C2CC(c3ccc(Cl)cc3)=NN2c2ccccc2)cc1 (centres undefined) [UNM-0000305847]
30	COc1ccc(C2=NN(c3ccccc3)C(c3ccc(OC)c(OC)c3C(=O)O)C2)cc1 (centres undefined) [UNM-0000305848]
30	Cc1ccccc1[N+]1=N[C-](c2ccccc2)CC1c1cccc([N+](=O)[O-])c1 (centres undefined) [UNM-0000305854]
30	COc1ccccc1N1N=C(c2ccccc2)CC1c1ccccc1 (centres undefined) [UNM-0000305855]
30	O=[N+]([O-])c1cccc(C2C[C-](c3ccccc3)N=[N+]2c2ccccc2)c1 (centres undefined) [UNM-0000305857]
30	COc1ccc(C2CC(c3ccc(Cl)cc3)=NN2c2ccccc2)cc1OC (centres undefined) [UNM-0000305858]
30	FC(F)(F)c1cccc(N2N=C(c3ccc(Cl)cc3)CC2c2ccccc2Cl)c1 (centres undefined) [UNM-0000305859]
30	COc1ccc(C2=NN(c3ccccc3F)C(c3ccc(F)cc3)C2)cc1 (centres undefined) [UNM-0000305860]
30	COc1ccc(C2=NN(c3ccc(Cl)cc3)C(c3ccccc3F)C2)cc1 (centres undefined) [UNM-0000305863]
30	COc1ccc(C2CC(c3ccc(F)cc3)=NN2c2ccccc2)cc1OC (centres undefined) [UNM-0000305864]
30	CN(C)c1ccc(C2CC(c3ccc(F)cc3)=NN2c2ccccc2)cc1 (centres undefined) [UNM-0000305866]
30	COc1ccc(C2CC(c3ccccc3)=NN2c2ccc(C(N)=O)cc2)cc1 (centres undefined) [UNM-0000305870]
